# Experimental data taken from US7560466B2, “Methods of treating or preventing autoimmune diseases with 2,4-pyrimidinediamine compounds” (Rigel Pharmaceuticals, Inc., priority 2003, dated 2009).
# Like-named read-outs stand apart in the source and are kept apart here.
# What was measured:
# [1] = test system: cultured human mast cells (CHMC), ionomycin-induced degranulation; experiment: CHMC low cell density ionomycin activation: tryptase assay; assay type: cell-based; details: read-out: LD Tryptase, CHMC, Iono, 3pt
# [2] = test system: cultured human mast cells (CHMC), IgE-induced degranulation; experiment: CHMC low cell density IgE activation: tryptase assay; assay type: cell-based
# Summary of the method: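 Cord-blood CD34+-derived mucosal mast cells (SCF/IL-6 medium), 1000–1500 cells/well, preincubated with compound 1 h at 37°C, then anti-IgE stimulated 30 min at 37°C.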
# [3] = low cell density CHMC, ionomycin activation, 3pt
# [4] = low cell density CHMC, 3pt, read-out: LD Tryptase, CHMC, IgE, 3pt
# [5] = low cell density CHMC, 8pt, read-out: LD Tryptase, CHMC, IgE, 8pt
# [6] = low cell density CHMC, ionomycin activation (2 μM final), 3pt
# [7] = CHMC low cell density, ionomycin activation, 3pt
# [8] = CHMC low cell density, 3pt, read-out: LD Tryptase, CHMC, IgE, 3pt
# [9] = CHMC low cell density, 8pt, read-out: LD Tryptase, CHMC, IgE, 8pt
# [10] = low cell density CHMC, ionomycin activation, 3-point
# [11] = low cell density CHMC, 3-point, read-out: LD Tryptase, CHMC, IgE, 3pt
# [12] = low cell density CHMC, 8-point, read-out: LD Tryptase, CHMC, IgE, 8pt
"IC50 [2, 4]","IC50 [2, 5]","IC50 [1, 7]","IC50 [2, 8]","IC50 [1, 10]",SMILES,also measured
< 10 µM,< 10 µM,,,,"CC1(C)COc2ccc(Nc3nc(Nc4cccc(-c5cnco5)c4)ncc3F)cc2N1 [Compound 233, N4-(3,4-Dihydro-3,3-dimethyl-2H,4H-benz[1,4]oxazin-6-yl)-5-fluoro-N2-[3-(oxazol-5-yl)phenyl]-2,4-pyrimidinediamine]","IC50 [1, 3]: > 10 µM"
< 10 µM,< 10 µM,,,,"CNC(=O)COc1cccc(Nc2ncc(F)c(Nc3ccc4c(c3)NCCS4)n2)c1 [Compound 258, N4-(3,4-Dihydro-2H,4H-benzo[1,4]thiazin-6-yl)-5-fluoro-N2-[3-(N-methylamino)carbonylmethyleneoxyphenyl]-2,4-pyrimidinediamine]","IC50 [1, 3]: > 10 µM"
,,> 10 µM,< 10 µM,,"COc1c(C)cc(Nc2ncc(F)c(Nc3ccc4c(n3)N(C)C(=O)C(C)(C)O4)n2)cc1Cl [Compound 1009, N2-(3-Chloro-4-methoxy-5-methylphenyl)-5-fluoro-N4-(3-oxo-2,2,4-trimethyl-5-pyrid[1,4]oxazin-6-yl)-2,4-pyrimidinediamine]","IC50 [2, 9]: < 10 µM"
,,,,< 10 µM,"CCOC(=O)COc1c(C)cc(Nc2ncc(F)c(Nc3ccc4c(c3)NC(=O)C(C)(C)O4)n2)cc1Cl [Compound 1014, N2-[3-Chloro-4-ethoxycarbonylmethyleneoxy-5-methylphenyl]-N4-(2,2-dimethyl-3-oxo-4H-benz[1,4]oxazin-6-yl)-5-fluoro-2,4-pyrimidinediamine]","IC50 [2, 11]: < 10 µM; IC50 [2, 12]: < 10 µM"
,,,,> 10 µM,"CCn1ncc2ccc(Nc3ncc(F)c(Nc4ccc5c(n4)NC(=O)C(C)(C)O5)n3)cc21 [Compound 1049, N4-(2,2-Dimethyl-3-oxo-4H-5-pyrid[1,4]oxazin-6-yl)-N2-(1-ethylindazol-6-yl)-5-fluoro-2,4-pyrimidinediamine]","IC50 [2, 11]: < 10 µM; IC50 [2, 12]: < 10 µM"
,,> 10 µM,< 10 µM,,"CNC(=O)c1cc(Nc2ncc(F)c(N(C)c3ccc4c(c3)OCCO4)n2)ccc1Cl [Compound 453, N2-[4-Chloro-3-(N-methylamino)carbonylphenyl]-N4-(3,4-ethylenedioxyphenyl)-5-fluoro-N4-methyl-4-pyrimidinediamine]",
< 10 µM,< 10 µM,,,,"CC1(C)COc2ccc(Nc3nc(Nc4ccc(-c5cnco5)cc4)ncc3F)cc2N1 [Compound 223, N4-(3,4-Dihydro-3,3-dimethyl-2H,4H-benz[1,4]oxazin-6-yl)-5-fluoro-N2-[4-(oxazol-5-yl)phenyl]-2,4-pyrimidinediamine]","IC50 [1, 3]: > 10 µM"
,,,,> 10 µM,"CCOC(=O)COc1c(C)cc(Nc2ncc(F)c(Nc3ccc4c(n3)NC(=O)C(C)(C)O4)n2)cc1C [Compound 1038, N2-(3,5-Dimethyl-4-ethoxycarbonylmethyleneoxyphenyl)-N4-(2,2-dimethyl-3-oxo-4H-5-pyrid[1,4]oxazin-6-yl)-5-fluoro-2,4-pyrimidinediamine]","IC50 [2, 12]: < 10 µM"
< 10 µM,< 10 µM,,,,"Cc1cc(C)cc(Nc2ncc(F)c(Nc3ccc4c(c3)NCC(CCO)O4)n2)c1 (stereo not drawn) [Compound 255, N4-[2,3-Dihydro-2-(2-hydroxyethyl)-2H,4H-benz[1,4]oxazin-6-yl]-N2-(3,5-dimethylphenyl)-5-fluoro-2,4-pyrimidinediamine]","IC50 [1, 3]: > 10 µM"
,,> 10 µM,< 10 µM,,"CNC(=O)COc1cccc(Nc2ncc(F)c(N(C)c3ccc4c(c3)OCCO4)n2)c1 [Compound 385, N4-(3,4-Ethylenedioxyphenyl)-5-fluoro-N4-methyl-N2-[3-(N-methylamino)carbonylmethyleneoxyphenyl]-2,4-pyrimidinediamine]","IC50 [2, 9]: < 10 µM"
,,> 10 µM,< 10 µM,,CC(=O)N1CCN(c2ccc(Nc3ncc(F)c(Nc4ccc5c(c4)OC(F)(F)C(F)(F)O5)n3)cc2)CC1 [Compound 432],
,,,,> 10 µM,"Cc1cc(Nc2ncc(F)c(Nc3ccc4c(n3)NC(=O)C(C)(C)O4)n2)cc(C)c1OCC(=O)NC1CCCC1 [Compound 1044, N2-[3,5-Dimethyl-4-(N-cyclopentylamino)carbonylmethyleneoxyphenyl]-N4-(2,2-dimethyl-3-oxo-4H-5-pyrid[1,4]oxazin-6-yl)-5-fluoro-2,4-pyrimidinediamine]","IC50 [2, 11]: > 10 µM; IC50 [2, 12]: > 10 µM"
,,,,> 10 µM,"Cc1cc(Nc2ncc(F)c(Nc3ccc4c(n3)NC(=O)C(C)(C)O4)n2)cc(Cl)c1OCC(=O)NCC(O)CO (stereo not drawn) [Compound 1043, N2-[3-Chloro-4-[N-(2,3-dihydroxypropyl)amino]carbonylmethyleneoxy-5-methylphenyl]-N4-(2,2-dimethyl-3-oxo-4H-5-pyrid[1,4]oxazin-6-yl)-5-fluoro-2,4-pyrimidinediamine]","IC50 [2, 11]: < 10 µM; IC50 [2, 12]: < 10 µM"
,,< 10 µM,< 10 µM,,"CNC(=O)COc1c(C)cc(Nc2ncc(F)c(N(C)c3ccc4c(c3)OCCO4)n2)cc1C [Compound 635, N2-[3,5-Dimethyl-4-(N-methylamino)carbonylmethyleneoxyphenyl]-N4-(3,4-ethylenedioxyphenyl)-5-fluoro-N4-methyl-2,4-pyrimidinediamine]","IC50 [2, 9]: < 10 µM"
,,> 10 µM,< 10 µM,,"COC(=O)Cn1ccc2ccc(Nc3ncc(F)c(Nc4ccc5c(c4)NC(=O)C(C)(C)O5)n3)cc21 [Compound 639, N4-(2,2-Dimethyl-3-oxo-4H-benz[1,4]oxazin-6-yl)-5-fluoro-N2-[1-(methoxycarbonylmethylene)indol-6-yl]-2,4-pyrimidinediamine]","IC50 [2, 9]: < 10 µM"
,,> 10 µM,> 10 µM,,"CN(C)c1ncc(F)c(N(C)c2ccc3c(c2)OCCO3)n1 [Compound 462, N2-Dimethyl-N4-(3,4-ethylenedioxyphenyl)-5-fluoro-N4-methyl-2,4-pyrimidinediamine]",
< 10 µM,< 10 µM,,,,C[C@@H]1Oc2ccc(Nc3nc(Nc4ccc(-c5cnco5)cc4)ncc3F)cc2NC1=O [Compound 225],"IC50 [1, 3]: > 10 µM"
< 10 µM,< 10 µM,,,,"CNC(=O)COc1cccc(Nc2ncc(F)c(Nc3ccc4c(c3)N(C)C(=O)CS4)n2)c1 [Compound 259, 5-Fluoro-N2-[3-(N-methylamino)carbonylmethyleneoxyphenyl]-N4-(4-methyl-3-oxo-2H-benzo[1,4]thiazin-6-yl)-2,4-pyrimidinediamine]","IC50 [1, 3]: > 10 µM"
,,,,> 10 µM,"CC1(C)CNc2nc(Nc3nc(Cl)ncc3F)ccc2O1 [Compound 1051, 2-Chloro-N4-(3,4-dihydro-2,2-dimethyl-4H-5-pyrid[1,4]oxazin-6-yl)-5-fluoro-4-pyrimidinea mine]","IC50 [2, 11]: > 10 µM"
,,< 10 µM,< 10 µM,,"CNC(=O)COc1c(C)cc(Nc2ncc(F)c(N(C)c3ccc4c(c3)OC(F)(F)C(F)(F)O4)n2)cc1C [Compound 636, N2-[3,5-Dimethyl-4-(N-methylamino)carbonylmethyleneoxyphenyl]-5-fluoro-N4-methyl-N4-[3,4-(tetrafluoroethylenedioxy)phenyl]-2,4-pyrimidinediamine]","IC50 [2, 9]: < 10 µM"
< 10 µM,< 10 µM,,,,"Fc1cnc(Nc2cccc(-c3ncco3)c2)nc1Nc1ccc2c(n1)NCCO2 [Compound 1143, N4-(3,4-Dihydro-2H,4H-5-pyrid[1,4]oxazin-6-yl)-5-fluoro-N2-[3-(oxazol-2-yl)phenyl]-2,4-pyrimidinediamine]","IC50 [1, 6]: > 10 µM"
,,> 10 µM,< 10 µM,,"Cc1ccccc1Nc1ncc(F)c(Nc2ccc3c(n2)NC(=O)C(C)(C)O3)n1 [Compound 1004, N4-(2,2-Dimethyl-3-oxo-4H-5-pyrid[1,4]oxazin-6-yl)-5-fluoro-N2-(2-methylphenyl)-2,4-pyrimidinediamine]",
,,,,> 10 µM,"CCOC(=O)COc1c(C)cc(Nc2ncc(F)c(Nc3ccc4c(n3)NC(=O)C(C)(C)O4)n2)cc1Cl [Compound 1042, N2-(3-Chloro-4-ethoxycarbonylmethyleneoxy-5-methylphenyl)-N4-(2,2-dimethyl-3-oxo-4H-5-pyrid[1,4]oxazin-6-yl)-5-fluoro-2,4-pyrimidinediamine]","IC50 [2, 11]: > 10 µM"
,,,,,"COC(=O)C=NC(=O)c1ccc(Nc2ncc(F)c(Nc3ccc4c(c3)NC(=O)[C@H](C)O4)n2)cc1 [Compound 1271, (S)-5-Fluoro-N2-[4-(N-methoxycarbonylmethyleneamino)carbonylphenyl]-N4-(2-methyl-3-oxo-2H,4H-benz[1,4]oxazin-6-yl)-2,4-pyrimidinediamine]","IC50 ([1]; Homo sapiens, Mast cell, low cell density CHMC, ionomycin activation (2 μM final), 3pt): > 10 µM; IC50 ([2]; Homo sapiens, Mast cell, low cell density CHMC, 8pt, read-out: LD Tryptase, CHMC, IgE, 8pt): < 10 µM"
,,,,> 10 µM,"Cc1cc(Nc2ncc(F)c(Nc3ccc4c(n3)NC(=O)C(C)(C)O4)n2)cc(Cl)c1OC1CCCC1 [Compound 1027, N2-(3-Chloro-4-cyclopentyloxy-5-methylphenyl)-N4-(2,2-dimethyl-3-oxo-4H-5-pyrid[1,4]oxazin-6-yl)-5-fluoro-2,4-pyrimidinediamine]","IC50 [2, 11]: < 10 µM"

SMILES,"IC50 [2, 4]","IC50 [2, 5]","IC50 [1, 7]","IC50 [2, 8]","IC50 [1, 10]",also measured
"CN1CCN(c2cccc(Nc3ncc(F)c(Nc4ccc5c(n4)NCCO5)n3)c2)CC1 [Compound 1142, N4-(3,4-Dihydro-2H,4H-5-pyrid[1,4]oxazin-6-yl)-5-fluoro-N2-[3-(4-methylpiperazino)phenyl]-2,4-pyrimidinediamine]",< 10 µM,< 10 µM,,,,"IC50 [1, 6]: > 10 µM"
